From paper PMC10224441, “Structural Manipulations of Marine Natural Products Inspire a New Library of 3-Amino-1,2,4-Triazine PDK Inhibitors Endowed with Antitumor Activity in Pancreatic Ductal Adenocarcinoma” (Marine Drugs, 2023)

Experiments:
[1] = target: T1, recombinant human PDK1 (Homo sapiens, UniProt Q15118); test: PDK1 ADPGlo Kinase Assay; format: biochemical; conditions: for inhibition of PDK1 enzymatic activity: 1.5 µM compound, 30 min, room temperature; for IC50: isolated PDK1 isoform, four-parameter logistic model, mean of 3 independent experiments, read-out: IC50 (µM) ± S.D. PDK1
T1 construct: purchased Abcam
T1 sequence (Q15118 29-436): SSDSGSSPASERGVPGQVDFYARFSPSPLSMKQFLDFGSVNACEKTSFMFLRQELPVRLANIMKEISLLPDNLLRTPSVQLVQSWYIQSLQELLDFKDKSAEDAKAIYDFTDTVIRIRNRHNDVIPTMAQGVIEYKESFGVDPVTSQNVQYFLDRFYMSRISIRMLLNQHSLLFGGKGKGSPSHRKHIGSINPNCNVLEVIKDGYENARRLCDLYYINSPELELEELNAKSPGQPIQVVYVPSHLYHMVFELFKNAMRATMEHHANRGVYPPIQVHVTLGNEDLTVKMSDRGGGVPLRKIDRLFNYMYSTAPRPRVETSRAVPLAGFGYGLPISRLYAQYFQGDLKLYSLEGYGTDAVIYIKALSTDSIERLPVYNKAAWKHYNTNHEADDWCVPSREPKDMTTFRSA
Experimental: The ability of the tested compounds to hamper the activity of PDK1-4 isoforms was firstly evaluated by means of a chemioluminescent assay, the ADPGlo™ Kinase Assay kit (Promega Corporation, Madison, WI, USA).
(§1) The in vitro inhibitory activity of tested compounds on recombinant human PDK1-4 isoforms (Abcam, Cambridge, MA, USA) was evaluated by using the ADPGlo™ Kinase Assay kit from Promega (Promega Corporation, Madison, WI, USA) following the instructions of the manufacturer, as previously described.

[2] = target: T2, recombinant human PDK4 (Homo sapiens, UniProt Q16654); test: PDK4 ADPGlo Kinase Assay; format: biochemical; conditions: 1.5 µM compound, 30 min, room temperature
T2 construct: purchased Abcam
T2 sequence (Q16654 whole entry): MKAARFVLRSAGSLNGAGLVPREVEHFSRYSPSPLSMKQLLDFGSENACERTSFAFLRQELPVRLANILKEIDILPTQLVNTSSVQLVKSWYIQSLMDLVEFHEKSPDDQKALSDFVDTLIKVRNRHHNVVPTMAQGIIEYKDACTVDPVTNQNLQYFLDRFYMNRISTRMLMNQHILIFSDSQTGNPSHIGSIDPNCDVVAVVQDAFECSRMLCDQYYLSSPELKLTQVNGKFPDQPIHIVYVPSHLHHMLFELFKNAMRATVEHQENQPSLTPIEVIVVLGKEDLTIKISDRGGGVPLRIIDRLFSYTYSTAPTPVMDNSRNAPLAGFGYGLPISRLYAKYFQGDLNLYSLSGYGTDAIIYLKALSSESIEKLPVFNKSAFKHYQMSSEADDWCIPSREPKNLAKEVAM
Experimental: The ability of the tested compounds to hamper the activity of PDK1-4 isoforms was firstly evaluated by means of a chemioluminescent assay, the ADPGlo™ Kinase Assay kit (Promega Corporation, Madison, WI, USA). The results obtained by incubating PDK1-4 isoforms for 30 min at room temperature with 1.5 µM of tested compounds are depicted in Figure 3 panel A as a heat-map summary of the inhibition percentage on PDK1-4 enzymatic activity. All the newly synthesized compounds were able to inhibit the pyruvate dehydrogenase kinases, although to a different extent and showing a preferential activity towards the PDK1 and PDK4 isoforms. […] Conversely, all tested 1,2,4-triazin-3-amines were barely effective in blocking PDK2 activity at 1.5 µM concentration. In addition, IC50 values on the PDK1 isoform were also calculated for all synthesized derivatives and the results are shown in Table 2.
as §1

[3] = tested on: BxPC-3 cells (KRAS-wild-type PDAC); test: 2D cytotoxicity, MTT assay, BxPC-3; format: cell-based; conditions: Homo sapiens, BXPC-3; 72 h exposure, MTT test, 2D culture; read-out: IC50 (µM) ± S.D. BxPC-3 (2D)
Experimental: (§2) All newly developed 1,2,4-amino-triazine compounds were screened for their cytotoxic activity against two human PDAC cell lines, namely, a KRAS-wild-type PDAC cell line (BxPC-3 cells) and a KRAS-mutant PDAC cell line (PSN-1 cells). […] The cytotoxicity parameters, expressed in terms of IC50 and obtained after 72 h of drug exposure by MTT assay, are reported in Table 3.
(§3) All tested compounds were dissolved in DMSO just before the experiment, and a calculated amount of drug solution was added to the cell growth medium to a final solvent concentration of 0.5%, which had no detectable effects on cell viability.
(§4) Human pancreatic PSN-1 and BxPC-3 carcinoma cell lines were obtained by American Type Culture Collection (ATCC, Rockville, MD, USA). Cell lines were maintained in the logarithmic phase at 37 °C in a 5% carbon dioxide atmosphere using RPMI-1640 medium (EuroClone) containing 10% fetal calf serum (EuroClone, Milan, Italy), antibiotics (50 units/mL penicillin and 50 μg/mL streptomycin) and 2 mM l-glutamine.
(§5) The growth inhibitory effect on tumor cells was evaluated by means of MTT assay. Briefly, 5 × 10^3 cells/well were seeded in 96-well microplates in a growth medium (100 μL). After 24 h, the medium was removed and replaced with a fresh one containing the compound to be studied at the appropriate concentration. Triplicate cultures were established for each treatment. After 72 h, each well was treated with 10 μL of a 5 mg/mL MTT saline solution, and following 5 h of incubation, 100 μL of a sodium dodecyl sulfate (SDS) solution in HCl 0.01 M was added. After overnight incubation, cell growth inhibition was detected by measuring the absorbance of each well at 570 nm using a Bio-Rad 680 microplate reader. The mean absorbance for each drug dose was expressed as a percentage of the control untreated well absorbance and plotted vs. drug concentration. IC50 values, the drug concentrations that reduce the mean absorbance at 570 nm to 50% of those in the untreated control wells, were calculated by the four-parameter logistic (4-PL) model. The evaluation was based on means from at least four independent experiments.

[4] = tested on: BxPC-3 spheroids; test: 3D spheroid cytotoxicity, acid phosphatase (APH) assay, BxPC-3; format: cell-based; conditions: Homo sapiens, 72 h, acid phosphatase (APH) test, read-out: IC50 (µM) ± S.D. BxPC-3 (3D spheroids)
[5] = target: recombinant human HSP90 (Homo sapiens, UniProt P07900); test: HSP90 inhibition assay (Transcreener ADP kit); format: biochemical; conditions: for IC50: isolated HSP90, four-parameter logistic model, mean of 3 independent experiments, read-out: IC50 (µM) ± S.D. HSP90; for inhibition of HSP90 enzyme activity: 1.5 µM compound
Experimental: Since the ATP binding pockets in PDKs and HSP90 are similar and taking into consideration that these 1,2,4-triazine derivatives conserved a chemical scaffold resembling that of the well-known Hsp90 inhibitor Ganetespib, the most performant PDK inhibitors 4d, 4f, 4h, 5d, 5f, 5h and 5j were also screened for their ability to target HSP90.
The in vitro inhibitory activity of tested compounds on recombinant human HSP90 was assessed by The Transcreener™ ADP kit (Bellbrook Labs, Madison, WI, USA) according to the manufacturer’s protocol as previously described.

[6] = tested on: PSN-1 spheroids; test: 3D spheroid cytotoxicity, acid phosphatase (APH) assay, PSN-1; format: cell-based; conditions: Homo sapiens, PSN1, 72 h, acid phosphatase (APH) test, read-out: IC50 (µM) ± S.D. PSN-1 (3D spheroids)
Experimental: Prompted by these encouraging results, we also screened the newly developed 1,2,4-triazine compounds against 3D spheroids of PDAC KRAS wild-type and mutant cells, to further estimate their anticancer potential in a more predictive environment. […] The PDAC cancer spheroids were treated with tested compounds for 72 h, and cell viability was assessed by means of the acid phosphatase (APH) assay (Table 3). The efficacy of gemcitabine as well as of DCA and DAP was assessed under the same experimental conditions.
Spheroid cultures were obtained by seeding 2.5 × 10^3 PSN-1 cancer cells/well in a round-bottom non-treated tissue culture 96-well plate (Greiner Bio-one, Kremsmünster, Austria) in phenol red-free RPMI-1640 medium (Sigma Chemical Co, St. Louis, MO, USA) containing 10% fetal calf serum and supplemented with 20% methylcellulose stock solution.
An APH-modified assay was used for determining cell viability in 3D spheroids, as previously described. Briefly, the pre-seeded spheroids were treated with fresh medium containing the compound to be studied at the appropriate concentration (range 2.5–200 μM). Triplicate cultures were established for each treatment. After 72 h, each well was treated with 100 μL of the assay buffer (0.1 M sodium acetate, 0.1% Triton-X-100, supplemented with ImmunoPure p-nitrophenyl phosphate; Sigma Chemical Co.) and, following 3 h of incubation, 10 μL of 1 M NaOH solution were added. The inhibition of the cell growth induced by the tested compounds was detected by measuring the absorbance of each well at 405 nm, using a Bio-Rad 680 microplate reader. The mean absorbance for each drug dose was expressed as a percentage of the control untreated well absorbance (T/C) and plotted vs. drug concentration. IC50 values, the drug concentrations that reduce the mean absorbance at 405 nm 50% of those in the untreated control wells, were calculated by the four-parameter logistic (4-PL) model. The evaluation was based on means from at least four independent experiments.

[7] = tested on: PSN-1 cells (KRAS-mutant PDAC); test: 2D cytotoxicity, MTT assay, PSN-1; format: cell-based; conditions: Homo sapiens, PSN1; 72 h exposure, MTT test, 2D culture; read-out: IC50 (µM) ± S.D. PSN-1 (2D)
Experimental: as §2, §3, §4, §5

## COc1ccc2c(c1)c(-c1nc(N)nnc1-c1cn(C)c3ncc(Br)cc13)cn2C [5j, 6-(5-Bromo-1-methyl-1H-pyrrolo[2,3-b]pyridin-3-yl)-5-(5-methoxy-1-methyl-1H-indol-3-yl)-1,2,4-triazin-3-amine]
[1]
  inhibition of PDK1 enzymatic activity: totally hampered
  IC50: 0.04 ± 0.02 µM
[2]
  inhibition of PDK4 enzymatic activity: completely suppress
[3]
  IC50: 0.04 ± 0.02 µM
[4]
  IC50: 79.5 ± 5.4 µM
[5]; 1.5 µM compound (equi-doses)
  decrease of HSP90 catalytic activity: 60–80%
[5]
  IC50: 0.18 ± 0.04 µM
[6]
  IC50: 89.7 ± 5.7 µM
[7]
  IC50: 0.1 ± 0.03 µM
other
  melting point: 269.8 °C

## Cn1cc(-c2nnc(N)nc2-c2cn(C)c3ncc(Br)cc23)c2cc(Cl)ccc21 [4f, 5-(5-Bromo-1-methyl-1H-pyrrolo[2,3-b]pyridin-3-yl)-6-(5-chloro-1-methyl-1H-indol-3-yl)-1,2,4-triazin-3-amine]
[1]
  inhibition of PDK1 enzymatic activity: totally hampered
  IC50: 0.12 ± 0.04 µM
[3]
  IC50: 18.4 ± 1.4 µM
[4]
  IC50: 169 ± 12.4 µM
[5]
  inhibition of HSP90 enzyme activity: completely abolish
  IC50: 0.1 ± 0.03 µM
[6]
  IC50: 162 ± 6.8 µM
[7]
  IC50: 11.3 ± 1.8 µM
other
  melting point: 262.1 °C

## Cn1cc(-c2nc(N)nnc2-c2cn(C)c3ncc(Br)cc23)c2cc(F)ccc21 [5h, 6-(5-Bromo-1-methyl-1H-pyrrolo[2,3-b]pyridin-3-yl)-5-(5-fluoro-1-methyl-1H-indol-3-yl)-1,2,4-triazin-3-amine]
[1]
  inhibition of PDK1 enzymatic activity: totally hampered
  IC50: 0.05 ± 0.03 µM
[2]
  inhibition of PDK4 enzymatic activity: completely suppress
[3]
  IC50: 0.05 ± 0.03 µM
[4]
  IC50: 208 ± 12.7 µM
[5]
  inhibition of HSP90 enzyme activity: completely abolish
  IC50: 0.09 ± 0.03 µM
[6]
  IC50: 132 ± 5.9 µM
[7]
  IC50: 27.4 ± 5.1 µM
other
  melting point: 311.1 °C

## Cn1cc(-c2nc(N)nnc2-c2cn(C)c3ncc(Br)cc23)c2cc(Cl)ccc21 [5f, 6-(5-Bromo-1-methyl-1H-pyrrolo[2,3-b]pyridin-3-yl)-5-(5-chloro-1-methyl-1H-indol-3-yl)-1,2,4-triazin-3-amine]
[1]
  inhibition of PDK1 enzymatic activity: totally hampered
  IC50: 0.08 ± 0.02 µM
[2]
  inhibition of PDK4 enzymatic activity: completely suppress
[3]
  IC50: 22.4 ± 3.2 µM
[4]
  IC50: 229 ± 17.2 µM
[5]
  inhibition of HSP90 enzyme activity: completely abolish
  IC50: 0.11 ± 0.04 µM
[6]
  IC50: 213 ± 14.4 µM
[7]
  IC50: 21.3 ± 4.4 µM
other
  melting point: 334.6 °C

## Cn1cc(-c2nnc(N)nc2-c2cn(C)c3ncc(Br)cc23)c2cc(F)ccc21 [4h, 5-(5-Bromo-1-methyl-1H-pyrrolo[2,3-b]pyridin-3-yl)-6-(5-fluoro-1-methyl-1H-indol-3-yl)-1,2,4-triazin-3-amine]
[1]
  inhibition of PDK1 enzymatic activity: totally hampered
  IC50: 0.06 ± 0.02 µM
[3]
  IC50: 22.3 ± 2.4 µM
[4]
  IC50: 188 ± 14.4 µM
[5]
  inhibition of HSP90 enzyme activity: completely abolish
[6]
  IC50: 77.8 ± 3.8 µM
[7]
  IC50: 17.5 ± 2.8 µM
other
  melting point: 155.6 °C

## Cn1cc(-c2nc(N)nnc2-c2cn(C)c3ncc(Br)cc23)c2cc(Br)ccc21 [5d, 5-(5-Bromo-1-methyl-1H-indol-3-yl)-6-(5-bromo-1-methyl-1H-pyrrolo[2,3-b]pyridin-3-yl)-1,2,4-triazin-3-amine]
[1]
  inhibition of PDK1 enzymatic activity: totally hampered
  IC50: 0.05 ± 0.02 µM
[2]
  inhibition of PDK4 enzymatic activity: completely suppress
[3]
  IC50: 26.7 ± 6.1 µM
[4]
  IC50: 198 ± 14.2 µM
[5]
  inhibition of HSP90 enzyme activity: completely abolish
  IC50: 0.07 ± 0.01 µM
[6]
  IC50: 216 ± 13.6 µM
[7]
  IC50: 21.3 ± 3.5 µM
other
  melting point: 333.7 °C

## Cn1cc(-c2nnc(N)nc2-c2cn(C)c3ncc(Br)cc23)c2cc(Br)ccc21 [4d, 6-(5-Bromo-1-methyl-1H-indol-3-yl)-5-(5-bromo-1-methyl-1H-pyrrolo[2,3-b]pyridin-3-yl)-1,2,4-triazin-3-amine]
[1]
  inhibition of PDK1 enzymatic activity: totally hampered
  IC50: 0.04 ± 0.02 µM
[2]
  inhibition of PDK4 enzymatic activity: completely suppress
[3]
  IC50: 30.2 ± 6.2 µM
[4]
  IC50: 176 ± 15.7 µM
[5]
  inhibition of HSP90 enzyme activity: completely abolish
  IC50: 0.06 ± 0.02 µM
[6]
  IC50: 103 ± 9.1 µM
[7]
  IC50: 23.4 ± 3.7 µM
